# In PMC11106165, “Repurposing the KCa3.1 Blocker Senicapoc for Ischemic Stroke” (Translational Stroke Research, 2023):
# Where “and” joins values, the source holds several entries; their conditions need not be identical. Equal entries are not always repeated.
# How the values were obtained:
# human tPA = biological target: T1, human tPA (Homo sapiens, UniProt P00750); assay: Chromogenic tPA activity assay; type: biochemical; settings: 0.5 μM and 5 μM, 30-min assay, PBS with 10% human serum
# T1 construct: purchased Abcam ab108905
# Description: The commercially available tPA Activity Assay Kit (Abcam, ab108905) was used to assess whether senicapoc and TRAM-34 affect the ability of human tPA to cleave its substrate plasminogen similar to protocols published by Lapchak and Boitano [38] and Lapchak et al.. Reactions were run in optically clear flat-bottom 96-well plates (Corning, Catalog #3904). Human plasminogen activator inhibitor-1 (PAI-1; Sigma-Aldrich CC4075) was used as a positive control. Human plasminogen, the chromogenic plasmin substrate, and human tPA were included in the tPA Activity Assay Kit. […] The reactions were pre-incubated at 37 °C for 5 min prior to the addition of the chromogenic plasmin substrate and subsequently placed in a heated SpectraMax M5 spectrophotometer. Absorbances at 405 nm were measured every 30 s for 30 min.
# [1] = system: male C57BL/6 J mice, tMCAO; assay: RT-qPCR of inflammatory markers in brain on day 8 after tMCAO; type: in vivo, mouse
# Description: (§1) After MRIs were completed, mice were euthanized with an overdose of isoflurane, brains harvested, split into ipsilateral and contralateral hemispheres, and immediately frozen with liquid N2. Brain hemispheres were homogenized in mortar and pestles with liquid N2. RNA was extracted from brain homogenates (Fig. 7b) or MMC cell pellets (Fig. 2) with Trizol (ThermoFisher, Catalog # 15,596,026) according to the manufacturer’s protocol. RNA purity and concentration were assessed using a Nanodrop Spectrophotometer ND-1000 (Marshall Scientific). The 260 nm/280 nm absorption ratios for the samples ranged from 1.95 to 2.00. Subsequently, a cDNA library was made with a High-Capacity cDNA Reverse Transcription Kit (ThermoFisher Scientific, Catalog# 4,374,967), with 2 µg of total RNA per […]. Reactions were carried out in a PTC-200 Peltier Thermal Cycler; the conditions were as follows: 25 °C for 10 min, 37 °C for 120 min, 85 °C for 5 min, with final storage at 4 °C. RT-qPCR reactions were conducted in an Applied Biosystems Viia7 Real-Time PCR System using Maxima SYBR Green/ROX qPCR Master Mix (ThermoFisher Scientific, Catalog #K022) and with the recommended three-step cycling protocol. All CT values were normalized to the geometric mean of three housekeeping genes, β-actin, GAPDH, and 18S, as recommended by Vandesompele et al.. Fold change was calculated by the ∆∆Ct method. Primer sequences are provided in Supplementary Table 1. For brain samples, relative mRNA levels were generated by normalizing to sham.
# Statistical analysis of infarct percentage comparing two groups was performed using unpaired t-test. Statistical analysis of three groups (e.g., vehicle vs senicapoc 10 mg/kg vs senicapoc 40 mg/kg) was performed with analysis of variance (ANOVA) with a post hoc pair-wise comparison using Tukey’s test (Origin software), as previously described. All data are shown as box-and-whisker plots with an overlay of the individual animal data. The boxes show mean ± S.E.M, and the whiskers show confidence intervals. The categorical neurological scoring data in Fig. 3 b is shown as a scatter plot without means or S.E.M and was analyzed with the Mann–Whitney U test as per recommendations for optimal presentation and analysis of non-parametric data in pre-clinical stroke studies by Dirnagl. For the IHC data in Fig. 5 comparing two groups, unpaired t-tests were performed. The brain qPCR data in Fig. 7 was analyzed in Prism using one-way ANOVA followed by Dunnett’s test to correct for multiple comparisons. For all statistical testing, P < 0.05 was used as the level of significance. * = P < 0.05, ** = P < 0.01, *** = P < 0.001.
# [2] = system: MMC (mouse microglial cell line); assay: RT-qPCR of inflammatory markers in LPS-stimulated MMC; type: cell-based; settings: 24 h 100 ng/mL LPS
# Description: (§2) An immortalized mouse microglial cell (MMC) line was kindly provided by Dr. D.T. Golenbock (University of Massachusetts Medical School, Worcester, MA) and previously used by our laboratory. Cells were cultured in Gibco’s Dulbecco’s modified Eagle’s Medium (DMEM, high glucose, L-glutamine, high pyruvate) with 5% CO2 at 37° with 1% penicillin/streptomycin and 10% fetal bovine serum. For the qPCR experiments, cells were seeded at 200,000 cells/mL; 24 h later, medium was changed to DMEM with 2% FBS and cells were stimulated with 100 ng/mL lipopolysaccharide (LPS), in the presence or absence of senicapoc, or a 0.2% DMSO control. Cells were pre-incubated with senicapoc for 1 h prior to stimulation and harvested 24 h after stimulation.
# as §1, with “All CT values were normalized to the geometric mean of three housekeeping genes, β-actin, GAPDH, and 18S, as recommended by Vandesompele et al..” left out, “Primer sequences are provided in Supplementary Table 1. For brain samples, relative mRNA levels were generated by normalizing to sham.” left out
# KCa3.1 = biological target: T2, KCa3.1 (Mus musculus, UniProt O89109); assay: Whole-cell patch-clamp of KCa3.1 currents in mouse microglial cells (MMC); type: cell-based; settings: 1 µM free Ca2+, ramp -120 to +40 mV, mean ± 95% confidence interval, n = 4, read-out: IC50 for block of microglial KCa3.1 currents
# T2 construct: endogenous in cells; host or cells: immortalized mouse microglial cell (MMC) line
# Description: as §2
# MMCs were plated on poly-lysine-coated glass coverslips and KCa3.1 currents recorded in the whole-cell mode of the patch-clamp technique with an EPC-10 HEKA amplifier and 1 microM of free Ca^2+ in the pipette solution as previously described.
# [3] = fold-change relative to sham, day 8, adjusted P 0.01
# [4] = fold-change relative to sham, day 8, adjusted P <0.001
# T1 sequence (P00750 36-562): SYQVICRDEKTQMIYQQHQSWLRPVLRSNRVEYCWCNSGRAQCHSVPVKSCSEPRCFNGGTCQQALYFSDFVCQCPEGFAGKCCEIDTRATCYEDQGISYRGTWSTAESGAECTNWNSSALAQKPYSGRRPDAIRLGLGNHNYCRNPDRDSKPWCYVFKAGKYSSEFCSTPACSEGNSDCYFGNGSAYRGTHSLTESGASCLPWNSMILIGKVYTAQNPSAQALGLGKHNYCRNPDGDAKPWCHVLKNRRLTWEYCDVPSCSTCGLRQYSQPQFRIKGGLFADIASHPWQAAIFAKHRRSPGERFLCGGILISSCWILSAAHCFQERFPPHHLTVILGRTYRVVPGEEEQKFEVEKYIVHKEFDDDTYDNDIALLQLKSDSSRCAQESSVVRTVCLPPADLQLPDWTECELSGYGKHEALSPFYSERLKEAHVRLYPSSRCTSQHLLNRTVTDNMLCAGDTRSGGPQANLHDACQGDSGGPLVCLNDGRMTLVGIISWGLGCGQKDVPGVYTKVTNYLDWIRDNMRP
compound,measurement,setting,value
NC(=O)C(c1ccccc1)(c1ccc(F)cc1)c1ccc(F)cc1 [senicapoc],effect on tPA activity (absorbance at 405 nm),human tPA,no effect
same,"expression of IL-1β, TNF-α, IL-6, CD68, NLRP3, IL-2, IFN-γ, IL-4 and IL-10 in the infarcted hemisphere","[1]; 40 mg/kg started 3 h, day 8, vs vehicle",significantly reduced
same,"il1b mRNA, Mean Diff. vehicle-treated ipsi vs senicapoc-treated ipsi","[1]; fold-change relative to sham, day 8, 40 mg/kg started 3 h, adjusted P <0.001",3.115
same,"tgfb mRNA, Mean Diff. vehicle-treated ipsi vs senicapoc-treated ipsi","[1]; fold-change relative to sham, day 8, adjusted P 0.003",2.876
same,"il4 mRNA, Mean Diff. vehicle-treated ipsi vs senicapoc-treated ipsi",[1]; [3],2.833
same,"nlrp3 mRNA, Mean Diff. vehicle-treated ipsi vs senicapoc-treated ipsi",[1]; [3],4.839
same,"inos mRNA, Mean Diff. vehicle-treated ipsi vs senicapoc-treated ipsi","[1]; fold-change relative to sham, day 8, adjusted P 0.48",6.938
same,"bdnf mRNA, Mean Diff. vehicle-treated ipsi vs senicapoc-treated ipsi","[1]; fold-change relative to sham, day 8, adjusted P 0.79",-11.09
same,"il17a mRNA, Mean Diff. vehicle-treated ipsi vs senicapoc-treated ipsi","[1]; fold-change relative to sham, day 8, adjusted P 0.98",0.3131
same,"cd68 mRNA, Mean Diff. vehicle-treated ipsi vs senicapoc-treated ipsi",[1]; [4],12.76
same,"ifng mRNA, Mean Diff. vehicle-treated ipsi vs senicapoc-treated ipsi",[1]; [4],8.327
same,"il2 mRNA, Mean Diff. vehicle-treated ipsi vs senicapoc-treated ipsi",[1]; [4],10.6
same,"il6 mRNA, Mean Diff. vehicle-treated ipsi vs senicapoc-treated ipsi",[1]; [4],7.107
same,"il10 mRNA, Mean Diff. vehicle-treated ipsi vs senicapoc-treated ipsi",[1]; [4],13.82
same,"tnfa mRNA, Mean Diff. vehicle-treated ipsi vs senicapoc-treated ipsi",[1]; [4],6.221
same,induction of inflammasome component NLRP3,[2],prevented induction
same,mRNA levels of iNOS and COX-2,[2],significantly reduced
same,"mRNA expression of IL-1β, TNF-α, IL-6 and IL-10",[2]; 1 h pre-incubation,concentration-dependently reduced
same,IC50,KCa3.1,7 nM and 6.97 nM
